Source: patent US20060019936A1 (priority 2004, published 2006)
Entries after “also recorded” stand apart in the source; their conditions may differ. Where two headings read alike, the source gives them in different places.

Key:
LNCaP cells [1] = format: cell-based, human
PARP = format: cell-based, human
LNCaP cells [2] = experiment: Cell cycle analysis by flow cytometry; format: cell-based, human
LNCaP cells [3] = format: cell-based, human; remark: listed apart in the source
p27 (Kip1) = format: cell-based, human
p21 (WAF1/Cip1) = format: cell-based, human
p45 Skp2 = format: cell-based, human
c-Myc = c-Myc protein levels in LNCaP cells; format: cell-based, human
p70S6K = experiment: Phosphorylation status of p70S6K in LNCaP cells; format: cell-based, human
LNCaP cells [4] = experiment: DNA fragmentation by agarose gel electrophoresis; format: cell-based, human; settings: 20 μM, 24 h exposure
Bid = Bid cleavage analysis; format: cell-based, human; settings: LNCaP cells
rabbit uterine ER = molecular target: T1, rabbit uterine ER (Oryctolagus cuniculus, UniProt G1SML6); experiment: Radiometric competitive binding assay for the ER (RBA); settings: RBA for estradiol is 100
T1 construct: from tissue; host or cells: rabbit uterus
T1 sequence (G1SML6 1-598): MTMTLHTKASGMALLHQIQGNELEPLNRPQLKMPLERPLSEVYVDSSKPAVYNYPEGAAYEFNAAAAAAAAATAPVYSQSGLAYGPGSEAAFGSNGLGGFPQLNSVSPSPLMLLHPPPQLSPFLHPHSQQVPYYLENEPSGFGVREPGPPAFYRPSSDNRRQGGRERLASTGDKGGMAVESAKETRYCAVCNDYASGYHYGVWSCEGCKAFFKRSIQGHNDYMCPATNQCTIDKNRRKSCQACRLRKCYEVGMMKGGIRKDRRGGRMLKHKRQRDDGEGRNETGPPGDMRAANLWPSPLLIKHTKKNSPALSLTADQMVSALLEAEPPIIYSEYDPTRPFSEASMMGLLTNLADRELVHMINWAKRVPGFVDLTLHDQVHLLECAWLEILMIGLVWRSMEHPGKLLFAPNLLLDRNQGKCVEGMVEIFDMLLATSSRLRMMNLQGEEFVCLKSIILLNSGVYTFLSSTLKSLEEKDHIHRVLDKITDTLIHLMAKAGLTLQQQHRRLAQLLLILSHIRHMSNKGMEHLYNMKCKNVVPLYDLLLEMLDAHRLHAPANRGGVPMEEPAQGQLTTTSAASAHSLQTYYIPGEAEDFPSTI

[5] = molecular target: T2, portion of the ER containing the estradiol binding site (Homo sapiens, UniProt P03372); experiment: Electrophoretic gel mobility shift assay of DNA adducts with ER
T2 sequence (P03372 311-547 limits assumed): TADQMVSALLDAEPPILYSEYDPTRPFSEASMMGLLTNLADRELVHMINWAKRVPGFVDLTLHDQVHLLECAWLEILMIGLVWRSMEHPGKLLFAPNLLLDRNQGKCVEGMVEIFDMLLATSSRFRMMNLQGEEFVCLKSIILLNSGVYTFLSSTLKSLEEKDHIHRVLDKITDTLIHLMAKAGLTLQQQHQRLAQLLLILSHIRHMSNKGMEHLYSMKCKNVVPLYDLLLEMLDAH

[6] = test system: MCF-7 (ER+) breast cancer cells; experiment: Toxicity toward MCF-7 breast cancer cells; format: cell-based
[7] = test system: MDA-MB231 (ER−) breast cancer cells; format: cell-based
[8] = test system: self complementary octamer deoxyoligonucleotide; experiment: Reactivity with DNA (piperidine labile sites); format: biochemical
[9] = pH 7.4

Row | Compound | relative binding affinity (RBA) for the ER (rabbit uterine ER) | complex formation of covalent DNA adducts with ER [5] | DNA modification, cleaved by piperidine [8] | toxicity [6] | toxicity [7] | logD [9] | other results
1 | COCCN(CCOC)c1ccc(CCCNC(=O)OCCNCCCCCCC2CC3(C)C(O)CCC3C3CCC4=CC(=O)CCC4=C23)cc1 (stereo not drawn) [11β-dimethoxy] |  |  |  |  |  |  | changes in LNCaP cell shape (LNCaP cells [1]): slight contraction, which was reversed by 24 h; cleavage of PARP (PARP): No cleavage; LNCaP cells in G1 (LNCaP cells [2]; 10 uM for 20 hr, flow cytometry): > 90%; cell cycle arrest (LNCaP cells [2]; LNCaP cells): halt, albeit transiently, the growth of LNCaP cells in the G1 phase of the cell cycle; apoptotic response (LNCaP cells [3]): did not activate an apoptotic response; also recorded: does not induce markers of apoptosis; toxic effect / cell killing (LNCaP cells [3]): transient toxic effect but does not kill cells; levels of p27 (p27 (Kip1)): increased; eventual levels of p21 (p21 (WAF1/Cip1)): recovered to basal levels; initial change in levels of p21 (p21 (WAF1/Cip1)): initially decreased; levels of Skp2 (p45 Skp2): decreased; levels of the c-Myc protein (c-Myc): causes c-Myc levels to drop; effect on p70S6K (p70S6K): inhibits p70S6K
2 | O=C(O)CCCc1ccc(N(CCCl)CCCl)cc1 [Chlorambucil, reference compound] |  |  |  |  |  |  | changes in LNCaP cell shape (LNCaP cells [1]): no effect on cellular shape; DNA fragmentation (LNCaP cells [4]): No changes; cleavage of PARP (PARP; 20 μM, LNCaP cells): No cleavage; Bid cleavage (Bid): No changes; apoptotic response (LNCaP cells [3]; LNCaP cells, single agent): fails to induce apoptosis; levels of p27 (p27 (Kip1); LNCaP cells, 20 μM, up to 15 h): without effect; levels of p21 (p21 (WAF1/Cip1); LNCaP cells, 20 μM, up to 15 h): potent inducer of p21; levels of Skp2 (p45 Skp2; LNCaP cells, 20 μM, up to 15 h): unaffected
3 | CC12CCC3c4ccc(O)cc4CC(CCCCCCNCCOC(=O)NCCCc4ccc(N(CCCl)CCCl)cc4)C3C1CCC2O (stereo not drawn) [Compound 1, 7α-{N-(2-(N-((N,N-bis-2-chloroethylaminophenyl)propyl)-carbamoyloxy)ethyl)aminohexyl}-3,17β-dihydroxyestra-1,3,5(10)-triene] | excellent affinity |  |  |  |  |  | complex formation of covalent DNA adducts with ER ([5]; gel mobility shift, band eliminated by excess estradiol): form complexes; also recorded: greatest affinity for the ER-LBD; differential toxicity MCF-7 (ER+) versus MDA-MB231 (ER−) ([6]; comparison of the two cell lines): significantly more toxic toward MCF-7 cells than MDA-MB231 cells; also recorded: largest differential toxicity
4 | CC12CCC3c4ccc(O)cc4CC(CCCCCCNCCNC(=N)NCCCc4ccc(N(CCCl)CCCl)cc4)C3C1CCC2O (centres unmarked) [Compound 5] | low RBAs | form complexes; also recorded: virtually all of the modified oligonucleotide formed a slowly migrating band |  |  |  |  | toxicity at the highest dose [6]: neither compound showed significant toxicity; toxicity at the highest dose [7]: neither compound showed significant toxicity
5 | CC12CCC3c4ccc(O)cc4CC(CCCCCCNC(=N)NCCCc4ccc(N(CCCl)CCCl)cc4)C3C1CCC2O (centres unmarked) [Compound 7] | comparable affinities | form complexes |  |  |  |  | toxicity at the highest dose [6]: neither compound showed significant toxicity; toxicity at the highest dose [7]: neither compound showed significant toxicity
6 | CC12CCC3c4ccc(O)cc4CC(CCCCCCOC(=O)NCCCc4ccc(N(CCCl)CCCl)cc4)C3C1CCC2O (centres unmarked) [Compound 9] | low RBAs |  | 3% | low toxicity | low toxicity | > 5 | 
7 | O=P(NCCO)(c1ccccc1)c1ccccc1 [Compound 12] | comparable affinities |  |  | low toxicity | low toxicity | high logD values | 
8 | CC(C)(C)[Si](C)(C)OCCNP(=O)(c1ccccc1)c1ccccc1 [Compound 13] | comparable affinities | form complexes | 79% | toxicity similar to that of 1 | toxicity similar to that of 1 |  | differential toxicity MCF-7 (ER+) versus MDA-MB231 (ER−) [6]: greater toxicity toward the ER-positive MCF-7 cells
9 | CC12CCC3c4ccc(O)cc4CC(CCCCCCNC(=O)CCCc4ccc(N(CCCl)CCCl)cc4)C3C1CCC2O (centres unmarked) [Compound 14] | low RBAs |  | 14% | low toxicity | low toxicity | > 5 | 
10 | CC12CCC3c4ccc(O)cc4CC(CCCCCCNCCCCc4ccc(N(CCCl)CCCl)cc4)C3C1CCC2O (centres unmarked) [Compound 15] | 40 | form complexes |  | toxicity similar to that of 1 | toxicity similar to that of 1 |  | differential toxicity MCF-7 (ER+) versus MDA-MB231 (ER−) [6]: greater toxicity toward the ER-positive MCF-7 cells
